From patent US10072011B2, “Substituted bridged urea analogs as sirtuin modulators” (GlaxoSmithKline Intellectual Property (No.2) Limited, priority 2014, dated 2018)
Like-named read-outs stand apart in the source and are kept apart here.

Biological target: T1, SIRT1 (Homo sapiens, UniProt Q96EB6)
T1 sequence (Q96EB6 1-747): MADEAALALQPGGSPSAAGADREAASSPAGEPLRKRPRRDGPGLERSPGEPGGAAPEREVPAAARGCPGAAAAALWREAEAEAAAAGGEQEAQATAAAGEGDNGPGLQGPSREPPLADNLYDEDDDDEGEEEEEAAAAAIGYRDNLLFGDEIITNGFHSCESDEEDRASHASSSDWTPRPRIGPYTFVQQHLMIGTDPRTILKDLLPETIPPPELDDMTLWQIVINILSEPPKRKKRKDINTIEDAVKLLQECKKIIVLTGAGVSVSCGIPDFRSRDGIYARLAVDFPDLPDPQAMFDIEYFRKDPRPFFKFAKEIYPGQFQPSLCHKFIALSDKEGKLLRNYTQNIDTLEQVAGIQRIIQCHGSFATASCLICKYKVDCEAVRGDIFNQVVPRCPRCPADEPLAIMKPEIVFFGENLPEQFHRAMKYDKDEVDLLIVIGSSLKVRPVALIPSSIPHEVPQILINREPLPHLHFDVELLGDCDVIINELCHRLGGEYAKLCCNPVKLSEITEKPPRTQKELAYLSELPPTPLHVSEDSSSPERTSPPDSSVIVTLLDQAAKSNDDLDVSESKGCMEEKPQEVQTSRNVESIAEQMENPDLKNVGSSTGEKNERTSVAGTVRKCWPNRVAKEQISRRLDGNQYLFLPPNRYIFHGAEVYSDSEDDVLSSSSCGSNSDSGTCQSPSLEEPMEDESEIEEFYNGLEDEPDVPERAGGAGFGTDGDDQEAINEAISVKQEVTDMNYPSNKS
Assay: Trp mass spectrometry assay of SIRT1 activation (Ac-R-H-K-K(Ac)-W-NH2 peptide)
Type: biochemical
Details: for Emax: 25 min, read-out: TRP MAX RESP (percent maximum fold activation)
Method in brief: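 N-terminal His-tagged human SIRT1, expressed in BL21(DE3) and purified, was incubated 25 min with an acetylated Trp peptide and NAD plus test compound at varying concentrations, then quenched with formic acid. OAADPR or deacetylated peptide was quantified by mass spectrometry versus compound-free control; EC1.5 is the concentration giving 50% activity increase, with percent maximum activation.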

[1] = Trp peptide 0.5 μM, 120 μM βNAD+, 10 nM SIRT1, 25 min at 25° C., relative to control (100%)
[2] = Trp peptide 0.5 μM, 120 μM βNAD+, 10 nM SIRT1, 25 min at 25° C.

Row | SMILES | Emax [1] [%] | TRP Activity (EC1.5, concentration of test compound that results in 150% activation of SIRT1) [2] | Emax [%] | TRP MAX RESP (percent maximum fold activation) [1]
1 | CCCNC(=O)c1ccc2c(n1)N(C(=O)Nc1ccccn1)[C@H]1CCN2C1 [Example 40, (4S)—N7-propyl-N5-(pyridin-2-yl)-3,4-dihydro-1,4-methanopyrido[2,3-b][1,4]diazepine-5,7(2H)-dicarboxamide] | > 150 | A (EC1.5<1 μM) |  | 
2 | C[C@@H](NC(=O)c1ccc2c(n1)N(C(=O)Nc1cnccn1)[C@H]1CCN2C1)C(F)(F)F [Example 237, (4S)—N5-(pyrazin-2-yl)-N7-((R)-1,1,1-trifluoropropan-2-yl)-3,4-dihydro-1,4-methanopyrido[2,3-b][1,4]diazepine-5,7(2H)-dicarboxamide] | > 150 | A (EC1.5<1 μM) |  | 
3 | CC(C)NC(=O)c1ccnc(NC(=O)N2c3nc(C(=O)N[C@H](C)C(F)(F)F)ccc3N3CC[C@H]2C3)c1 [Example 297, (4S)—N5-(4-(isopropylcarbamoyl)pyridin-2-yl)-N7-((R)-1,1,1-trifluoropropan-2-yl)-3,4-dihydro-1,4-methanopyrido[2,3-b][1,4]diazepine-5,7(2H)-dicarboxamide] | < 150 | A (EC1.5<1 μM) |  | 
4 | C[C@@H](NC(=O)c1ccc2c(n1)N(C(=O)Nc1cc(OC[C@@H](O)CO)ncn1)[C@H]1CCN2C1)C(F)(F)F [Example 162, (4S)—N5-(6-((S)-2,3-dihydroxypropoxy)pyrimidin-4-yl)-N7-((R)-1,1,1-trifluoropropan-2-yl)-3,4-dihydro-1,4-methanopyrido[2,3-b][1,4]diazepine-5,7(2H)-dicarboxamide] | > 150 | A (EC1.5<1 μM) |  | 
5 | CN(C)C(=O)c1ccnc(NC(=O)N2c3nc(C(=O)NCC(F)(F)F)ccc3N3CC[C@H]2C3)c1 [Example 259, (4S)—N5-(4-(dimethylcarbamoyl)pyridin-2-yl)-N7-(2,2,2-trifluoroethyl)-3,4-dihydro-1,4-methanopyrido[2,3-b][1,4]diazepine-5,7(2H)-dicarboxamide] |  | B (EC1.5 1-25 μM) | > 150 | 
6 | Cc1ncc(-c2cc(NC(=O)N3c4nc(C(=O)NCC(F)(F)F)ccc4N4CC[C@H]3C4)ncn2)o1 [Example 169, (4S)—N5-(6-(2-methyloxazol-5-yl)pyrimidin-4-yl)-N7-(2,2,2-trifluoroethyl)-3,4-dihydro-1,4-methanopyrido[2,3-b][1,4]diazepine-5,7(2H)-dicarboxamide] | > 150 | A (EC1.5<1 μM) |  | 
7 | C[C@@H](NC(=O)c1ccc2c(n1)N(C(=O)Nc1cc3cn[nH]c3cn1)[C@H]1CCN2C1)C(F)(F)F [Example 170, (4S)—N5-(1H-pyrazolo[3,4-c]pyridin-5-yl)-N7-((R)-1,1,1-trifluoropropan-2-yl)-3,4-dihydro-1,4-methanopyrido[2,3-b][1,4]diazepine-5,7(2H)-dicarboxamide] | > 150 | A (EC1.5<1 μM) |  | 
8 | O=C(NCC(F)(F)F)c1nc2c(cc1Cl)N1CC[C@@H](C1)N2C(=O)Nc1ccccn1 [Example 279, (4S)-8-chloro-N5-(pyridin-2-yl)-N7-(2,2,2-trifluoroethyl)-3,4-dihydro-1,4-methanopyrido[2,3-b][1,4]diazepine-5,7(2H)-dicarboxamide] | > 150 | A (EC1.5<1 μM) |  | 
9 | O=C(NCC(F)(F)F)c1ccc2c(n1)N(C(=O)Nc1cccc[n+]1[O-])[C@H]1CC[N+]2([O-])C1 [Example 275, (4S)-5-((1-oxidopyridin-2-yl)carbamoyl)-7-((2,2,2-trifluoroethyl)carbamoyl)-2,3,4,5-tetrahydro-1H-1,4-methanopyrido[2,3-b][1, 4]diazepine 1-oxide] | > 150 | C (EC1.5>25 μM) |  | 
10 | O=C(NC(CCO)C(F)(F)F)c1ccc2c(n1)N(C(=O)Nc1ccccn1)[C@H]1CCN2C1 (single isomer, unassigned) [Example 248] |  | B (EC1.5 1-25 μM) |  | A (Fold activation≥150%)
11 | O=C(NCC(F)(F)F)c1ccc2c(n1)N(C(=O)Nc1ccc(F)cn1)[C@H]1CCN2C1 [Example 70, (4S)—N5-(5-fluoropyridin-2-yl)-N7-(2,2,2-trifluoroethyl)-3,4-dihydro-1,4-methanopyrido[2,3-b][1,4]diazepine-5,7(2H)-dicarboxamide] | > 150 | A (EC1.5<1 μM) |  | 
12 | CNC(=O)c1ccnc(NC(=O)N2c3nc(C(=O)N[C@H](C)C(F)(F)F)ccc3N3CC[C@H]2C3)c1 [Example 151, (4S)—N5-(4-(methylcarbamoyl)pyridin-2-yl)-N7-((R)-1,1,1-trifluoropropan-2-yl)-3,4-dihydro-1,4-methanopyrido[2,3-b][1,4]diazepine-5,7(2H)-dicarboxamide] | > 150 | A (EC1.5<1 μM) |  | 
13 | C[C@@H](NC(=O)c1ccc2c(n1)N(C(=O)Nc1cc(NS(C)(=O)=O)ccn1)[C@H]1CCN2C1)C(F)(F)F [Example 324, (4S)—N5-(4-(methylsulfonamido)pyridin-2-yl)-N7-((R)-1,1,1-trifluoropropan-2-yl)-3,4-dihydro-1,4-methanopyrido[2,3-b][1,4]diazepine-5,7(2H)-dicarboxamide] | < 150 | A (EC1.5<1 μM) |  | 
14 | CCNC(=O)c1ccnc(NC(=O)N2c3nc(C(=O)N[C@H](C)C(F)(F)F)ccc3N3CC[C@H]2C3)c1 [Example 304, (4S)—N5-(4-(ethylcarbamoyl)pyridin-2-yl)-N7-((R)-1,1,1-trifluoropropan-2-yl)-3,4-dihydro-1,4-methanopyrido[2,3-b][1,4]diazepine-5,7(2H)-dicarboxamide] | < 150 | A (EC1.5<1 μM) |  | 
15 | C[C@@H](NC(=O)c1ccc2c(n1)N(C(=O)Nc1cn(C)ccc1=O)[C@H]1CCN2C1)C(F)(F)F [Example 188, (4S)—N5-(1-methyl-4-oxo-1,4-dihydropyridin-3-yl)-N7-((R)-1,1,1-trifluoropropan-2-yl)-3,4-dihydro-1,4-methanopyrido[2,3-b][1,4]diazepine-5,7(2H)-dicarboxamide] | > 150 | B (EC1.5 1-25 μM) |  | 
16 | COc1cc(NC(=O)N2c3nc(C(=O)NC4CC4(F)F)ccc3N3CC[C@H]2C3)ncn1 (single isomer, unassigned) [Example 298] | < 150 | B (EC1.5 1-25 μM) |  | 
